According to patent US9963442B2, “Pyridones as herbicides” (E I DU PONT DE NEMOURS AND COMPANY, priority 2014, dated 2018):

What was measured:
Type in all cases: in vivo
[1] = system: chickweed (common chickweed, Stellaria media); assay: Test C postemergence; details: scale 0 to 100, 0 is no effect, 100 is complete control
Description: (§1) Seeds of plant species selected from blackgrass (Alopecurus myosuroides), Italian ryegrass (Lolium multiflorum), winter wheat (Triticum aestivum), galium (catchweed bedstraw, Galium aparine), corn (Zea mays), large (Lg) crabgrass (Digitaria sanguinalis), giant foxtail (Setaria faberii), johnsongrass (Sorghum halepense), lambsquarters (Chenopodium album), morningglory (Ipomoea coccinea), yellow nutsedge (Cyperus esculentus), pigweed (Amaranthus retroflexus), ragweed (common ragweed, Ambrosia elatior), soybean (Glycine max), barnyardgrass (Echinochloa crus-galli), oilseed rape (Brassica napus), waterhemp (common waterhemp, Amaranthus rudis), and velvetleaf (Abutilon theophrasti) were planted into a blend of loam soil and sand and treated preemergence with test chemicals formulated in a non-phytotoxic solvent mixture which included a surfactant. At the same time, plants selected from these crop and weed species and also chickweed (common chickweed, Stellaria media), kochia (Kochia scoparia), and wild oat (Avena fatua), were planted in pots containing Sunshine Redi-Earth® planting medium comprising spaghnum peat moss, vermiculite, starter nutrients and dolomitic limestone and treated with postemergence applications of test chemicals formulated in the same manner. Plants ranged in height from 2 to 18 cm (1- to 4-leaf stage) for postemergence treatments. Treated plants and controls were maintained in a greenhouse for 13 to 15 days, after which time all species were compared to controls and visually evaluated. Plant response ratings, summarized in Table C, are based on a scale of 0 to 100 where 0 is no effect and 100 is complete control. A dash (-) response means no test result.

[2] = system: barnyardgrass (Echinochloa crus-galli); assay: Test C postemergence; details: scale 0 to 100, 0 is no effect, 100 is complete control
Description: as §1

wild oat (Avena fatua) = assay: Test C postemergence; details: scale 0 to 100, 0 is no effect, 100 is complete control
Description: as §1

corn (Zea mays) = assay: Test C postemergence; details: scale 0 to 100, 0 is no effect, 100 is complete control
Description: as §1

soybean (Glycine max) = assay: Test C postemergence; details: scale 0 to 100, 0 is no effect, 100 is complete control
Description: as §1

[3] = system: galium (catchweed bedstraw, Galium aparine); assay: Test C postemergence; details: scale 0 to 100, 0 is no effect, 100 is complete control
Description: as §1

kochia (Kochia scoparia) = assay: Test C postemergence; details: scale 0 to 100, 0 is no effect, 100 is complete control
Description: as §1

[4] = system: Italian ryegrass (Lolium multiflorum); assay: Test C postemergence; details: scale 0 to 100, 0 is no effect, 100 is complete control
Description: as §1

[5] = system: morningglory (Ipomoea coccinea); assay: Test C postemergence; details: scale 0 to 100, 0 is no effect, 100 is complete control
Description: as §1

[6] = system: pigweed (Amaranthus retroflexus); assay: Test C postemergence; details: scale 0 to 100, 0 is no effect, 100 is complete control
Description: as §1

[7] = system: yellow nutsedge (Cyperus esculentus); assay: Test C postemergence; details: scale 0 to 100, 0 is no effect, 100 is complete control
Description: as §1

[8] = system: velvetleaf (Abutilon theophrasti); assay: Test C postemergence; details: scale 0 to 100, 0 is no effect, 100 is complete control
Description: as §1

[9] = system: ducksalad (Heteranthera limosa); assay: Test B flooded paddy test; set-up: key: 0 = no effect, 100 = complete control; details: Flood, 250 g ai/ha applied to paddy water at 2-leaf stage; visually evaluated after 13 to 15 days; scale 0 (no effect) to 100 (complete control)
Procedure: (§2) Plant species in the flooded paddy test selected from rice (Oryza sativa), sedge, umbrella (small-flower umbrella sedge, Cyperus difformis), ducksalad (Heteranthera limosa), and barnyardgrass (Echinochloa crus-galli) were grown to the 2-leaf stage for testing. At time of treatment, test pots were flooded to 3 cm above the soil surface, treated by application of test compounds directly to the paddy water, and then maintained at that water depth for the duration of the test. Treated plants and controls were maintained in a greenhouse for 13 to 15 days, after which time all species were compared to controls and visually evaluated. Plant response ratings, summarized in Table B, are based on a scale of 0 to 100 where 0 is no effect and 100 is complete control. A dash (-) response means no test result.

[10] = system: sedge, umbrella (small-flower umbrella sedge, Cyperus difformis); assay: Test B flooded paddy test; set-up: key: 0 = no effect, 100 = complete control; details: Flood, 250 g ai/ha applied to paddy water at 2-leaf stage; visually evaluated after 13 to 15 days; scale 0 (no effect) to 100 (complete control)
Procedure: as §2

[11] = system: barnyardgrass (Echinochloa crus-galli); assay: Test B flooded paddy test; set-up: key: 0 = no effect, 100 = complete control; details: Flood, 250 g ai/ha applied to paddy water at 2-leaf stage; visually evaluated after 13 to 15 days; scale 0 (no effect) to 100 (complete control)
Procedure: as §2

rice (Oryza sativa) = assay: Test B flooded paddy test; set-up: key: 0 = no effect, 100 = complete control; details: Flood, 250 g ai/ha applied to paddy water at 2-leaf stage; visually evaluated after 13 to 15 days; scale 0 (no effect) to 100 (complete control)
Procedure: as §2

O=c1cccc(Oc2ncc(Cl)cn2)n1-c1ncc(Cl)cn1 [Compound 6]
20: Plant response rating, Corn (corn (Zea mays); 125 g ai/ha)
0: Plant response rating, Oat, Wild (wild oat (Avena fatua); 16 g ai/ha) | Plant response rating, Oat, Wild (wild oat (Avena fatua); 31 g ai/ha) | Plant response rating, Oat, Wild (wild oat (Avena fatua); 62 g ai/ha) | Plant response rating, Oat, Wild (wild oat (Avena fatua); 125 g ai/ha) | Plant response rating, Ryegrass, Italian ([4]; 16 g ai/ha) | Plant response rating, Ryegrass, Italian ([4]; 31 g ai/ha) | Plant response rating, Ryegrass, Italian ([4]; 62 g ai/ha) | Plant response rating, Ryegrass, Italian ([4]; 125 g ai/ha) | Plant response rating, Nutsedge, Yellow ([7]; 16 g ai/ha) | Plant response rating, Barnyardgrass [11] | Plant response rating, Rice (rice (Oryza sativa))
40: Plant response rating, Soybean (soybean (Glycine max); 16 g ai/ha)
10: Plant response rating, Barnyardgrass ([2]; 125 g ai/ha) | Plant response rating, Corn (corn (Zea mays); 31 g ai/ha) | Plant response rating, Corn (corn (Zea mays); 62 g ai/ha)
55: Plant response rating, Chickweed ([1]; 31 g ai/ha) | Plant response rating, Chickweed ([1]; 125 g ai/ha)
45: Plant response rating, Soybean (soybean (Glycine max); 31 g ai/ha)
75: Plant response rating, Morningglory ([5]; 31 g ai/ha) | Plant response rating, Pigweed ([6]; 62 g ai/ha) | Plant response rating, Velvetleaf ([8]; 62 g ai/ha) | Plant response rating, Velvetleaf ([8]; 125 g ai/ha)
85: Plant response rating, Kochia (kochia (Kochia scoparia); 125 g ai/ha) | Plant response rating, Pigweed ([6]; 125 g ai/ha) | Plant response rating, Sedge, Umbrella [10]
60: Plant response rating, Chickweed ([1]; 62 g ai/ha) | Plant response rating, Soybean (soybean (Glycine max); 62 g ai/ha) | Plant response rating, Galium ([3]; 31 g ai/ha) | Plant response rating, Galium ([3]; 62 g ai/ha) | Plant response rating, Kochia (kochia (Kochia scoparia); 31 g ai/ha)
65: Plant response rating, Morningglory ([5]; 62 g ai/ha) | Plant response rating, Velvetleaf ([8]; 31 g ai/ha)
70: Plant response rating, Soybean (soybean (Glycine max); 125 g ai/ha) | Plant response rating, Pigweed ([6]; 16 g ai/ha) | Plant response rating, Pigweed ([6]; 31 g ai/ha)
5: Plant response rating, Barnyardgrass ([2]; 16 g ai/ha) | Plant response rating, Barnyardgrass ([2]; 31 g ai/ha) | Plant response rating, Barnyardgrass ([2]; 62 g ai/ha) | Plant response rating, Corn (corn (Zea mays); 16 g ai/ha) | Plant response rating, Nutsedge, Yellow ([7]; 31 g ai/ha) | Plant response rating, Nutsedge, Yellow ([7]; 62 g ai/ha) | Plant response rating, Nutsedge, Yellow ([7]; 125 g ai/ha)
80: Plant response rating, Galium ([3]; 125 g ai/ha) | Plant response rating, Kochia (kochia (Kochia scoparia); 62 g ai/ha) | Plant response rating, Morningglory ([5]; 125 g ai/ha) | Plant response rating, Ducksalad [9]
50: Plant response rating, Chickweed ([1]; 16 g ai/ha) | Plant response rating, Galium ([3]; 16 g ai/ha) | Plant response rating, Kochia (kochia (Kochia scoparia); 16 g ai/ha) | Plant response rating, Morningglory ([5]; 16 g ai/ha) | Plant response rating, Velvetleaf ([8]; 16 g ai/ha)
